The record followed here is patent US20080234262A1 (Wyeth, priority 2007, published 2008).

Each structure is given as a SMILES string.

Assay [1] concerns the target PI3K (Homo sapiens, UniProt P42336). The assay is described as follows: Fluorescence polarization assay for PI3K.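 Further: PI3K kinase reaction on PIP2 with ATP, 30-60 min, product sensed by GST-GRP with red probe in fluorescence polarization (mP), controls without enzyme and at zero time.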 The assay is classed as biochemical. Particulars: PI3Kα; read-out: PI3Kα IC50.
Assay [2] relates to breast line MDA468. The experiment in a line: In vitro cell culture growth assay (MTS), MDA468. The assay is classed as cell-based, human. Particulars: Homo sapiens, 72 h, MDA468 cells, three days after drug treatment. The gist of the method: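 Growth measured as percent of same-plate vehicle control by MTS metabolic dye conversion (A490). Breast MDA468 and prostate LNCap cells, plated a day ahead, were exposed to compounds for 3 days.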

The test system of assay [3] is prostate line LNCap. The assay is described as follows: In vitro cell culture growth assay (MTS), LNCap.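 Further: viable cell density read by absorbance at 490 nm, growth expressed as percent of vehicle-treated cells on the same plate.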 The assay is classed as cell-based, human. Particulars: Homo sapiens, LNCaP, 72 h, LNCap cells, three days after drug treatment.

Chain of PI3K (P42336 whole entry): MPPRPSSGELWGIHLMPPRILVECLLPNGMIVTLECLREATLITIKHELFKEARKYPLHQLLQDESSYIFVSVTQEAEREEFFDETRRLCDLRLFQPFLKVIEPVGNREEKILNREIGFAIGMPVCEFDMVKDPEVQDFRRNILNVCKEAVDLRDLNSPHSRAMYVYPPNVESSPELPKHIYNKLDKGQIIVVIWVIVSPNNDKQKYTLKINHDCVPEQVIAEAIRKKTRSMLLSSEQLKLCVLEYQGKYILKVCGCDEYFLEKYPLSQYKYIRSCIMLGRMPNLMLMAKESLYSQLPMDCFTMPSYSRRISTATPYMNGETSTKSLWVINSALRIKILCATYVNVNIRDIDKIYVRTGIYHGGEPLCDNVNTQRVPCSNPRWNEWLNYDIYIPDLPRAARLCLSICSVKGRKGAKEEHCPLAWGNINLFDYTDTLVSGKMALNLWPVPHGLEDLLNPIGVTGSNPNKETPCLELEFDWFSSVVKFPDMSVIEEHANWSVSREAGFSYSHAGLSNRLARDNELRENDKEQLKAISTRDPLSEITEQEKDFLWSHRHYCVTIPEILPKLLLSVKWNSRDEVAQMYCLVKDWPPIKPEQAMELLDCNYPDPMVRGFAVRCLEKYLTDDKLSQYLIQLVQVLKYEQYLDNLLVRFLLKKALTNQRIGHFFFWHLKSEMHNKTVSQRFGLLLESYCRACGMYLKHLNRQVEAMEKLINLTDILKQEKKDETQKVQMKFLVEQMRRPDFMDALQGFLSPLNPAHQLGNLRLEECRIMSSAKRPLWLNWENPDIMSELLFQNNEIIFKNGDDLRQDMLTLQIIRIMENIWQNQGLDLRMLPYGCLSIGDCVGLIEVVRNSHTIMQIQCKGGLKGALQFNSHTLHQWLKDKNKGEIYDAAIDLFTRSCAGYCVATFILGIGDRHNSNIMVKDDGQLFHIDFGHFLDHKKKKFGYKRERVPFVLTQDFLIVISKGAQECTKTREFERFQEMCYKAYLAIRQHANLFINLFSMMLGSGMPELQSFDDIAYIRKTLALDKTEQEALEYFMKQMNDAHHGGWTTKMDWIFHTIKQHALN
Chain of PI3K (P27986 whole entry partner): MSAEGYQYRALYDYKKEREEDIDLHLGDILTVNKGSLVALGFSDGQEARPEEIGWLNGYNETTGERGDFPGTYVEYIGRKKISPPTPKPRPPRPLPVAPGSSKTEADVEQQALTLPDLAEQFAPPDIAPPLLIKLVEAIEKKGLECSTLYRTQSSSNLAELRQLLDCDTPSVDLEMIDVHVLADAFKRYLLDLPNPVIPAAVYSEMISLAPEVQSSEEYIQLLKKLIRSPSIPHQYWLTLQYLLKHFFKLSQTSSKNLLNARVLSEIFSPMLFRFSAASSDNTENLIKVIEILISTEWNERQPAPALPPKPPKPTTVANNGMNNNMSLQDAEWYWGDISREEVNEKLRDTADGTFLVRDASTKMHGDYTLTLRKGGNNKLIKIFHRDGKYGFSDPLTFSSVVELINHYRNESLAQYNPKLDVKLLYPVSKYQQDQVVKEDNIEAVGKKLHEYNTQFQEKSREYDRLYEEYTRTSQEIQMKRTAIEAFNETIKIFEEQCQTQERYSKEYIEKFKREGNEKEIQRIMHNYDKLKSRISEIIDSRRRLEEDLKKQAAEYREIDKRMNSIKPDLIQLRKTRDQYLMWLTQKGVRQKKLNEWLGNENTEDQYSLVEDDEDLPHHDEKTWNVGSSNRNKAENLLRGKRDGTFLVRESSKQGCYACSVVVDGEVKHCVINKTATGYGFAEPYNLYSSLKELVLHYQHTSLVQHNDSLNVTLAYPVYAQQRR

As usually defined, the IC50 is the concentration that inhibits the measured activity by half. Regarding `O=C(NO)Nc1ccc(-c2nc(N3CCOCC3)c3cnn(C4CCN(Cc5ccccc5)CC4)c3n2)cc1` [Compound 555, 1-{4-[1-(1-benzylpiperidin-4-yl)-4-morpholin-4-yl-1H-pyrazolo[3,4-d]pyrimidin-6-yl]phenyl}-3-hydroxyurea], the values for the 50% inhibitory concentration (IC50) in assay [1], in assay [2] and in assay [3] were 198 nM, 1100 nM and 100 nM, respectively.
Consider `C#CCNC(=O)Nc1ccc(-c2nc(N3CCOCC3)c3cnn(C4CCN(Cc5ccccc5)CC4)c3n2)cc1` [Compound 557, 1-{4-[1-(1-benzylpiperidin-4-yl)-4-morpholin-4-yl-1H-pyrazolo[3,4-d]pyrimidin-6-yl]phenyl}-3-prop-2-yn-1-ylurea], for which the IC50 in assay [1] is 173 nM; in assay [2] it was 3900 nM; in assay [3] it was 400 nM.
Turning to `NC(=O)Nc1ccc(-c2nc(N3CCOCC3)c3cnn(C4CCN(Cc5cccnc5)CC4)c3n2)cc1` [Compound 558, 1-(4-{4-morpholin-4-yl-1-[1-(pyridin-3-ylmethyl)piperidin-4-yl]-1H-pyrazolo[3,4-d]pyrimidin-6-yl}phenyl)urea], the half-maximal inhibitory concentration (IC50) in assay [1] was found to be 82 nM; in assay [2] it was 200 nM; in assay [3], 200 nM.
As to `O=C(Nc1ccc(-c2nc(N3CCOCC3)c3cnn(C4CCN(Cc5cccnc5)CC4)c3n2)cc1)Nc1cccnc1` [Compound 559, 1-(4-{4-morpholin-4-yl-1-[1-(pyridin-3-ylmethyl)piperidin-4-yl]-1H-pyrazolo[3,4-d]pyrimidin-6-yl}phenyl)-3-pyridin-3-ylurea], the half-maximal inhibitory concentration (IC50) in assay [1] was 20 nM; in assay [2], less than 27 nM; in assay [3], less than 27 nM.
As for `O=C(NCCF)Nc1ccc(-c2nc(N3CCOCC3)c3cnn(C4CCN(Cc5cccnc5)CC4)c3n2)cc1` [Compound 560, 1-(2-fluoroethyl)-3-(4-{4-morpholin-4-yl-1-[1-(pyridin-3-ylmethyl)piperidin-4-yl]-1H-pyrazolo[3,4-d]pyrimidin-6-yl}phenyl)urea], the IC50 was 338 nM in assay [1], 27 nM in assay [2] and less than 27 nM in assay [3].
The matching figures for `O=C(NCCO)Nc1ccc(-c2nc(N3CCOCC3)c3cnn(C4CCN(Cc5cccnc5)CC4)c3n2)cc1` [Compound 561, 1-(2-hydroxyethyl)-3-(4-{4-morpholin-4-yl-1-[1-(pyridin-3-ylmethyl)piperidin-4-yl]-1H-pyrazolo[3,4-d]pyrimidin-6-yl}phenyl)urea]: 162 nM, 600 nM and 500 nM.
The corresponding values for `O=C(NO)Nc1ccc(-c2nc(N3CCOCC3)c3cnn(C4CCN(Cc5cccnc5)CC4)c3n2)cc1` [Compound 562, 1-hydroxy-3-(4-{4-morpholin-4-yl-1-[1-(pyridin-3-ylmethyl)piperidin-4-yl]-1H-pyrazolo[3,4-d]pyrimidin-6-yl}phenyl)urea] are 259 nM, 1500 nM and 1100 nM.
The corresponding values for `CCNC(=O)Nc1ccc(-c2nc(N3CCOCC3)c3cnn(C4CCN(Cc5cccnc5)CC4)c3n2)cc1` [Compound 563, 1-ethyl-3-(4-{4-morpholin-4-yl-1-[1-(pyridin-3-ylmethyl)piperidin-4-yl]-1H-pyrazolo[3,4-d]pyrimidin-6-yl}phenyl)urea] are 187 nM, 27 nM and less than 27 nM.
As for `Nc1ccc(-c2nc(N3CCOCC3)c3cnn(C4CCC5(CC4)OCCO5)c3n2)cc1` [Compound 565, 4-[1-(1,4-dioxaspiro[4.5]dec-8-yl)-4-morpholin-4-yl-1H-pyrazolo[3,4-d]pyrimidin-6-yl]aniline], the values for the concentration for half-maximal inhibition (IC50) in assay [1], in assay [2] and in assay [3] were 2050 nM, 7200 nM and 1100 nM, respectively.
The corresponding values for `CNC(=O)Nc1ccc(-c2nc(N3CCOCC3)c3cnn(C4CCC5(CC4)OCCO5)c3n2)cc1` [Compound 566, 1-{4-[1-(1,4-dioxaspiro[4.5]dec-8-yl)-4-morpholin-4-yl-1H-pyrazolo[3,4-d]pyrimidin-6-yl]phenyl}-3-methylurea] are 74 nM, 85 nM and less than 27 nM.
The corresponding values for `CNC(=O)Nc1ccc(-c2nc(N3CCOCC3)c3cnn(C4CCC(=O)CC4)c3n2)cc1` [Compound 567, 1-methyl-3-{4-[4-morpholin-4-yl-1-(4-oxocyclohexyl)-1H-pyrazolo[3,4-d]pyrimidin-6-yl]phenyl}urea] are 56 nM, 180 nM and 27 nM.
The corresponding values for `CNC(=O)Nc1ccc(-c2nc(N3CCOCC3)c3cnn(C4CCC(O)CC4)c3n2)cc1` (stereo not drawn) [Compound 568, 1-{4-[1-(4-hydroxycyclohexyl)-4-morpholin-4-yl-1H-pyrazolo[3,4-d]pyrimidin-6-yl]phenyl}-3-methylurea] are 39 nM, 240 nM and 54 nM.
With `CNC(=O)Nc1ccc(-c2nc(N3CCOCC3)c3cnn(C4CCN(C(=O)c5cccnc5C)CC4)c3n2)cc1` [Compound 573, 1-methyl-3-[4-(1-{1-[(2-methylpyridin-3-yl)carbonyl]piperidin-4-yl}-4-morpholin-4-yl-1H-pyrazolo[3,4-d]pyrimidin-6-yl)phenyl]urea], the values for the 50% inhibitory concentration (IC50) in assay [1], in assay [2] and in assay [3] were 216 nM, 900 nM and 250 nM, respectively.
Regarding `CNC(=O)Nc1ccc(-c2nc(N3CCOCC3)c3cnn(C4CCN(Cc5ccc(OC)nc5)CC4)c3n2)cc1` [Compound 574, 1-[4-(1-{1-[(6-methoxypyridin-3-yl)methyl]piperidin-4-yl}-4-morpholin-4-yl-1H-pyrazolo[3,4-d]pyrimidin-6-yl)phenyl]-3-methylurea], the values for the concentration for half-maximal inhibition (IC50) in assay [1], in assay [2] and in assay [3] were 33 nM, 700 nM and less than 27 nM, respectively.
The matching figures for `CNC(=O)Nc1ccc(-c2nc(N3CCOCC3)c3cnn(C4CCN(Cc5ccccn5)CC4)c3n2)cc1` [Compound 575, 1-methyl-3-(4-{4-morpholin-4-yl-1-[1-(pyridin-2-ylmethyl)piperidin-4-yl]-1H-pyrazolo[3,4-d]pyrimidin-6-yl}phenyl)urea]: 64 nM, 500 nM and less than 27 nM.
The corresponding values for `CNC(=O)Nc1ccc(-c2nc(N3CCOCC3)c3cnn(C4CCN(CC(N)=O)CC4)c3n2)cc1` [Compound 576, 2-[4-(6-{4-[(methylcarbamoyl)amino]phenyl}-4-morpholin-4-yl-1H-pyrazolo[3,4-d]pyrimidin-1-yl)piperidin-1-yl]acetamide] are 66 nM, 1000 nM and 600 nM.
The corresponding values for `CNC(=O)Nc1ccc(-c2nc(N3CCOCC3)c3cnn(C4CCN(CC(=O)c5ccccc5)CC4)c3n2)cc1` [Compound 577, 1-methyl-3-(4-{4-morpholin-4-yl-1-[1-(2-oxo-2-phenylethyl)piperidin-4-yl]-1H-pyrazolo[3,4-d]pyrimidin-6-yl}phenyl)urea] are 22 nM, 180 nM and less than 27 nM.
As for `CNC(=O)Nc1ccc(-c2nc(N3CCOCC3)c3cnn(C4CCN(C(=O)N5CCN(C)CC5)CC4)c3n2)cc1` [Compound 578, 1-methyl-3-[4-(1-{1-[(4-methylpiperazin-1-yl)carbonyl]piperidin-4-yl}-4-morpholin-4-yl-1H-pyrazolo[3,4-d]pyrimidin-6-yl)phenyl]urea], the IC50 in assay [1] came to 71 nM; in assay [2], 700 nM; in assay [3] it was 400 nM.
The matching figures for `CNC(=O)Nc1ccc(-c2nc(N3CCOCC3)c3cnn(C4CCN(C(=O)Nc5cccnc5)CC4)c3n2)cc1` [Compound 579, 4-(6-{4-[(methylcarbamoyl)amino]phenyl}-4-morpholin-4-yl-1H-pyrazolo[3,4-d]pyrimidin-1-yl)-N-pyridin-3-ylpiperidine-1-carboxamide]: 30 nM, 2500 nM and 3000 nM.
On to `CNC(=O)Nc1ccc(-c2nc(N3CCOCC3)c3cnn(C4CCN(C(=O)c5ccccc5)CC4)c3n2)cc1` [Compound 580, 1-{4-[1-(1-benzoylpiperidin-4-yl)-4-morpholin-4-yl-1H-pyrazolo[3,4-d]pyrimidin-6-yl]phenyl}-3-methylurea], for which the figures for the concentration for half-maximal inhibition (IC50) in assay [1], in assay [2] and in assay [3] were 63 nM, 27 nM and less than 27 nM, respectively.
The matching figures for `CNC(=O)Nc1ccc(-c2nc(N3CCOCC3)c3cnn(C4CCNCC4)c3n2)cc1` [Compound 584, 1-methyl-3-[4-(4-morpholin-4-yl-1-piperidin-4-yl-1H-pyrazolo[3,4-d]pyrimidin-6-yl)phenyl]urea]: 22 nM, 1300 nM and 500 nM.
The corresponding values for `O=C(Nc1ccccc1)Nc1ccc(-c2nc(N3CCOCC3)c3cnn(C4CCN(Cc5cccnc5)CC4)c3n2)cc1` [Compound 586, 1-(4-{4-morpholin-4-yl-1-[1-(pyridin-3-ylmethyl)piperidin-4-yl]-1H-pyrazolo[3,4-d]pyrimidin-6-yl}phenyl)-3-phenylurea] are 11 nM, 220 nM and 31 nM.
The matching figures for `O=C(Nc1ccncc1)Nc1ccc(-c2nc(N3CCOCC3)c3cnn(C4CCN(Cc5cccnc5)CC4)c3n2)cc1` [Compound 587, 1-(4-{4-morpholin-4-yl-1-[1-(pyridin-3-ylmethyl)piperidin-4-yl]-1H-pyrazolo[3,4-d]pyrimidin-6-yl}phenyl)-3-pyridin-4-ylurea]: 12 nM, 120 nM and 28 nM.
Regarding `O=C(Nc1ccc(-c2nc(N3CCOCC3)c3cnn(C4CCN(Cc5cccnc5)CC4)c3n2)cc1)Nc1ccccn1` [Compound 588, 1-(4-{4-morpholin-4-yl-1-[1-(pyridin-3-ylmethyl)piperidin-4-yl]-1H-pyrazolo[3,4-d]pyrimidin-6-yl}phenyl)-3-pyridin-2-ylurea], the concentration for half-maximal inhibition (IC50) in assay [1] came out at 90 nM; in assay [2], 1800 nM; in assay [3], 330 nM.
